From patent US20240239816A1, “BORONO-PHENYLALANINE DERIVATIVE” (STELLA PHARMA CORPORATION, priority 2021, published 2024) come the findings set out here.

Structures are written as SMILES.

In series [1] the test system is human LAT1 and LAT2 highly expressing HEK 293 cell lines. Kind of series: Evaluation of LAT1 and LAT2-selective uptake. It is filed as cell-based. Conditions: (uptake in LAT1 cells / L-BPA uptake in LAT1 cells)/(uptake in LAT2 cells / L-BPA uptake in LAT2 cells); substrate concentration 0.1 mM; relative to L-BPA on the same day. Here is the method: HEK 293 cells that stably highly express human LAT1 and LAT2 respectively were prepared according to the method described in the article of Khunweeraphong, N et al. (Journal of Pharmacology Science, 2012, vol. 119, pp 368-380). A shuttle vector DNA (LAT1: EX-H 4509-M02, LAT2: EX-U0514-M02, manufactured by GeneCopoeia) having ampicillin and neomycin resistance markers and having full-length cDNA of human LAT1 or LAT2 inserted under the promoter of cytomegalovirus (CMV) was constructed. This vector was transfected into HEK 293 cells by a method using Lipofectamine (registered trademark) 2000 (Invitrogen) in accordance with the manufacturer's instructions. Thereafter, the stably expressing cell clone of the transgene was selected by the limiting dilution method in the presence of 0.9 mg/mL Geneticin (registered trademark), and a cell clone in which the uptake of L-boronophenylalanine (L-BPA) was enhanced by about 2 to about 5 times as compared with HEK 293 cells before transfection was obtained. This cell was passaged and used for evaluation of LAT1 and LAT2-selective uptake.
As a method for evaluating cell uptake, the same method as in the article of Khunweeraphong, N et al. (Journal of Pharmacology Science, 2012, vol. 119, pp 368-380) was used. Each of the cells obtained in (1) was used for evaluation. Radioactive isotopes were not used, a substrate concentration was 0.1 mM, and 2 mM BCH (2-amino-2-norbonanecarboxylic acid) was used as an LAT1 and LAT2 inhibitor. The reacted cells were collected with 0.05% Tween 20 and the concentration of the 4-borono-phenylalanine derivative in the cell fluid was determined. Quantification of the 4-borono-phenylalanine derivative in cells was performed in accordance with the method described in the article of Hattori, Y, et al. (Sensors 2017, 17, 2436), using 2-(2-hydroxyphenyl)pyridine (boron sensor 5) as a boron sensor. In the evaluation of cell uptake, in consideration of variations between experiments, the cell uptake was evaluated as a value (LAT1 selectivity) relative to the uptake of L-BPA as a comparative object performed on the same day.
LAT1 selectivity=(quantitative value of uptake of the compound in LAT1 cells/quantitative value of uptake of control L-BPA in LAT1 cells)/(quantitative value of uptake of the compound in LAT2 cells/quantitative value of uptake of control L-BPA in LAT2 cells)

Series [2] in a line: Single dose toxicity test. It is filed as in vivo. The note with it: single tail vein injection, 250, 500 and 1000 mg/kg, 5 animals per group, observation period 8 days. On the procedure: In a beaker, 17.6 mL of 1 mol/L NaOH was put, and 24 mL of water for injection was further added and mixed. To this was added 2.52 g of D-sorbitol. After confirming complete dissolution, 17.1 mL of 1 mol/L hydrochloric acid was added to adjust the pH to 7.4 to 7.8. The mixture was transferred to a measuring cylinder, the beaker was washed with water for injection, and the washing liquid was transferred to the measuring cylinder. This operation was repeated as much as possible, and the volume of the liquid in the measuring cylinder was increased to 80 mL while the beaker was washed. The mixture was filtration-sterilized with a filter (Millex GV, pore size: 0.22 μm, Merck, sterilized disposable product), affording a 3.15% D-sorbitol solution.
On the other hand, 10.1 mL of a 1 mol/L aqueous sodium hydroxide solution was put in a beaker, and 13.8 mL of water for injection was further added and mixed. To this were added 2.30 g of test substance and 1.45 g of D-sorbitol. After confirming complete dissolution, 1.36 mL of 1 mol/L hydrochloric acid was added to adjust the pH to 7.4 to 7.8. The mixture was transferred to a measuring cylinder, the beaker was washed with water for injection, and the washing liquid was transferred to the measuring cylinder. […]

`C[C@](N)(Cc1cc(F)c(B(O)O)cc1Cl)C(=O)O` [Example 29, (S)-2-Amino-3-(4-borono-2-chloro-5-fluorophenyl)-2-methylpropanoic acid]: the LAT1 selectivity result in series [1] is “twice or more”.
With `C[C@@](N)(Cc1ccc(B(O)O)cc1F)C(=O)O` [Example 2, (R)-2-Amino-3-(4-borono-2-fluorophenyl)-2-methylpropanoic acid], the LAT1 selectivity entry in series [1] is on record as “twice or more”.
The same measure, in the same setting: with `C[C@](N)(Cc1ccc(B(O)O)c(F)c1F)C(=O)O` [Example 14, (S)-2-Amino-3-(4-borono-2,3-difluorophenyl)-2-methylpropanoic acid] the entry was “twice or more”; with `CSc1cc(B(O)O)ccc1C[C@](C)(N)C(=O)O` [Example 34, (S)-2-Amino-3-(4-borono-2-(methylthio)phenyl)-2-methylpropanoic acid], “twice or more”; with `C[C@@](N)(Cc1ccc(B(O)O)cc1C(F)F)C(=O)O` [Example 36, (R)-2-Amino-3-(4-borono-2-(difluoromethyl)phenyl)-2-methylpropanoic acid], “twice or more”.
On the same count and under the same terms, with `C[C@](N)(Cc1ccc(B(O)O)cc1C(F)F)C(=O)O` [Example 35, (S)-2-Amino-3-(4-borono-2-(difluoromethyl)phenyl)-2-methylpropanoic acid] the entry was “twice or more”; with `C[C@](N)(Cc1cc(Cl)c(B(O)O)cc1F)C(=O)O` [Example 13, (S)-2-Amino-3-(4-borono-5-chloro-2-fluorophenyl)-2-methylpropanoic acid], “twice or more”.
Consider `C[C@@](N)(Cc1ccc(B(O)O)cc1C(F)(F)F)C(=O)O` [Example 6, (R)-2-Amino-3-(4-borono-2-(trifluoromethyl)phenyl)-2-methylpropanoic acid], for which the LAT1 selectivity result in series [1] is recorded as “twice or more”.
Turning to `C[C@](N)(Cc1ccc(B(O)O)cc1C(F)(F)F)C(=O)O` [Example 5, (S)-2-Amino-3-(4-borono-2-(trifluoromethyl)phenyl)-2-methylpropanoic acid], in series [1], the LAT1 selectivity entry is listed as “twice or more”.
For `Cc1cc(C[C@H](N)C(=O)O)ncc1B(O)O` [Example 51, (S)-2-Amino-3-(5-borono-4-methylpyridin-2-yl)propanoic acid], in series [1], the LAT1 selectivity entry is reported as “twice or more”.
For `C[C@](N)(Cc1ccc(B(O)O)c(F)c1)C(=O)O` [Example 15, (S)-2-Amino-3-(4-borono-3-fluorophenyl)-2-methylpropanoic acid], in series [1], the LAT1 selectivity result is “twice or more”.
Take `C[C@](N)(Cc1ccc(B(O)O)c(Cl)c1)C(=O)O` [Example 37, (S)-2-Amino-3-(4-borono-3-chlorophenyl)-2-methylpropanoic acid]: in series [1], the LAT1 selectivity result is “twice or more”.
Consider `Cc1cc(B(O)O)ccc1C[C@@](C)(N)C(=O)O` [Example 4, (R)-2-Amino-3-(4-borono-2-methylphenyl)-2-methylpropanoic acid], for which the LAT1 selectivity entry in series [1] is given as “twice or more”.
Still for that read-out and setting: with `N[C@@H](Cc1ncc(B(O)O)cc1Cl)C(=O)O` [Example 50, (S)-2-Amino-3-(5-borono-3-chloropyridin-2-yl)propanoic acid] the entry was “twice or more”.
Same read-out and setting: with `COc1cc(B(O)O)ccc1C[C@](C)(N)C(=O)O` [Example 7, (S)-2-Amino-3-(4-borono-2-methoxyphenyl)-2-methylpropanoic acid] the entry was “twice or more”.
On to `Cc1cc(C[C@](C)(N)C(=O)O)ccc1B(O)O` [Example 17, (S)-2-Amino-3-(4-borono-3-methylphenyl)-2-methylpropanoic acid], for which, in series [1], the LAT1 selectivity result is listed as “twice or more”.
On the same count and under the same terms, with `Cc1cc(B(O)O)ccc1C[C@](C)(N)C(=O)O` [Example 3, (S)-2-Amino-3-(4-borono-2-methylphenyl)-2-methylpropanoic acid] the entry was “twice or more”; with `C[C@@](N)(Cc1ccc(B(O)O)c(F)c1)C(=O)O` [Example 16, (R)-2-Amino-3-(4-borono-3-fluorophenyl)-2-methylpropanoic acid], “twice or more”.
The same measure, in the same setting: with `N[C@@H](Cc1ccc(B(O)O)cn1)C(=O)O` [Example 44, (S)-2-Amino-3-(5-boronopyridin-2-yl)propanoic acid] the entry was “twice or more”.
`C[C@](N)(Cc1ccc(B(O)O)cc1F)C(=O)O` [Example 1, (S)-2-amino-3-(4-borono-2-fluorophenyl)-2-methylpropanoic acid]: in series [1], the LAT1 selectivity entry is “twice or more”. For the same compound, in series [2], the “change due to administration of the test substance (single dose toxicity)” value is “no serious change due to the administration of the test substance was observed in any of the administration groups”.
For the compound `C[C@](N)(Cc1c(F)cc(B(O)O)cc1F)C(=O)O` [Example 11, (S)-2-Amino-3-(4-borono-2,6-difluorophenyl)-2-methylpropanoic acid], the LAT1 selectivity entry in series [1] is reported as “twice or more”.
On the same count and under the same terms, with `Cc1cc(B(O)O)cnc1C[C@H](N)C(=O)O` [Example 49, (S)-2-Amino-3-(5-borono-3-methylpyridin-2-yl)propanoic acid] the entry was “twice or more”.
`C[C@](N)(Cc1ccc(B(O)O)cc1Cl)C(=O)O` [Example 9, (S)-2-Amino-3-(4-borono-2-chlorophenyl)-2-methylpropanoic acid]: in series [1], the LAT1 selectivity entry was “twice or more”. Moreover, the “change due to administration of the test substance (single dose toxicity)” value in series [2] is given as “no serious change due to the administration of the test substance was observed in any of the administration groups”.
